Test results reported in ChEMBL document CHEMBL4732026, “Benzimidazole-1,2,3-triazole hybrid molecules: synthesis and study of their interaction with G-quadruplex DNA” (RSC Med Chem, 2021).
Calls of active or inactive are those of the source. The rule behind the calls is not given here.

Tests used:
CHO-K1 [1] = assay: Induction of apoptosis in CHO-K1 cells assessed as apoptic cells at 65 uM after 48 hrs by Annexin V based flow cytometric analysis (reference value: 6.29%); assay type: cell-based, Cricetulus griseus; conditions: chinese hamster, cho-k1, 48 h
dsDNA [2] = assay: Binding affinity to double strand DNA (unknown origin) assessed as dissociation constant incubated for 5 mins by UV- vis spectrophotometric analysis; assay type: nucleic-acid assay
PC-3 [3] = assay: Cytotoxicity against human PC3 cells assessed as reduction in cell viability measured after 72 hrs by MTT assay; assay type: functional, cell-based; conditions: PC-3, 72 h
Quadruplex DNA [4] = assay: Binding affinity to Tel Q G-quadruplex DNA (unknown origin) assessed as hyperchromicity at 8.5 uM incubated for 5 mins by UV- vis spectrophotometric analysis; assay type: nucleic-acid assay
PC-3 [5] = assay: Induction of cell cycle arrest in human PC3 cells assessed as accumulation at Sub G1 phase at 55 uM after 48 hrs by propidium iodide staining based flow cytometry (reference value: 0.1%); assay type: functional
PC-3 [6] = assay: Induction of apoptosis in human PC-3 cells assessed as apoptotic cells at 50 uM incubated for 48 hrs by AnnexinV based flow cytometric analysis (reference value: 10.43%); assay type: functional
PC-3 [7] = assay: Induction of apoptosis in human PC-3 cells assessed as viable cells at 55 uM after 48 hrs by Annexin V based flow cytometric analysis (reference value: 89.57%); assay type: functional; conditions: read-out: Activity
Quadruplex DNA [8] = assay: Stabilization of Tel Q G-quadruplex DNA (unknown origin) assessed as change in melting temperature at 8.5 uM incubated for 5 mins by UV-visible thermal denaturation study; assay type: nucleic-acid assay
PC-3 [9] = assay: Induction of cell cycle arrest in human PC3 cells assessed as accumulation at G1 phase at 55 uM after 48 hrs by propidium iodide staining based flow cytometry (reference value: 5%); assay type: functional
Quadruplex DNA [10] = assay: Binding affinity to c-Myc G-quadruplex DNA (unknown origin) assessed as increase in viscosity at 15 uM by EtBr/Hoechst 33342 method; assay type: nucleic-acid assay
PC-3 [11] = assay: Induction of apoptosis in human PC-3 cells assessed as viable cells at 50 uM after 48 hrs by Annexin V based flow cytometric analysis (reference value: 89.57%); assay type: functional; conditions: read-out: Activity
PC-3 [12] = assay: Induction of apoptosis in human PC-3 cells assessed as necrotic cells at 50 uM after 48 hrs by Annexin V based flow cytometric analysis (reference value: 0.79%); assay type: functional
CHO-K1 [13] = assay: Induction of apoptosis in CHO-K1 cells assessed as late apoptic cells at 60 uM after 48 hrs by Annexin V based flow cytometric analysis (reference value: 1.01%); assay type: cell-based, Cricetulus griseus; conditions: chinese hamster, cho-k1, 48 h
dsDNA [14] = assay: Binding affinity to double strand DNA (unknown origin) assessed as hypsochromic shift at 8.5 uM incubated for 5 mins by UV- vis spectrophotometric analysis; assay type: nucleic-acid assay

Work on `O=C(Cn1cc(CSc2nc3cc(OC(F)F)ccc3[nH]2)nn1)NC1CCCCC1` yielded an Activity (CHO-K1 [1]) of 15.63%, a Kd (dsDNA [2]) of 175 µM and an IC50 (PC-3 [3]) of 53.3 µM. The Activity (Quadruplex DNA [4]) was 37.1%, the Activity (PC-3 [5]) was 0.8% and the Activity (PC-3 [6]) was 12.72%. The viability at 55 µM (PC-3 [7]) was 81.4%, the ΔTm (Quadruplex DNA [8]) was 14 °C and the Activity (PC-3 [9]) was 18.2%. The Activity (Quadruplex DNA [10]) was “Active”, the viability at 50 µM (PC-3 [11]) was 87.3% and the Activity (PC-3 [12]) was 2.57%. For the same molecule, the Activity (CHO-K1 [13]) was 1.62% and the Activity (dsDNA [14]) was 5.6 nm.
